From patent publication US9028845B2, “Chimeric immunomodulatory compounds and methods of using the same-IV” (Dynavax Technologies Corporation, priority 2001, dated 2015)
“Also recorded” adds a separate entry of the source.

System: human PBMCs
Assay: Human PBMC cytokine response assay (IFN-γ and IFN-α in cell-free medium by ELISA), with or without cPLGA;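 for IFN-α (pg/ml) mean: 20 µg/mL compound for 24 hours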;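 for IFN-γ (pg/ml) mean: 20 µg/mL compound for 24 hours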
Type: cell-based
Conditions: for immunomodulatory activity (IFN-γ / IFN-α secretion), in words: used alone (no cPLGA)
[1] = mean of donors 28057-28060, Table 16
[2] = mean of donors 110, 112, 119, 120, Table 14
[3] = Table 25, mean of donors 28250-28253
[4] = donor 28066, 20 ug/ml, 24 h, + PLGA = premixed with 100 μg/ml cPLGA
[5] = donor 28067, 20 ug/ml, 24 h, + PLGA = premixed with 100 μg/ml cPLGA
[6] = donor 28068, 20 ug/ml, 24 h, + PLGA = premixed with 100 μg/ml cPLGA
[7] = mean of Donors 3-4, 20 μg/ml, 24 h
[8] = mean of Donors 9-12, 20 μg/ml, 24 h
[9] = mean of donors 28065-28068, 20 ug/ml, 24 h, + PLGA = premixed with 100 μg/ml cPLGA
[10] = mean of donors 28185-28188, Table 15

## (5′-TAGTCAT-3′-HEG)2-glycerol-HEG-5′-AACCTTC-3′ [Compound M-3, reference compound]
Example 58, 0.8 ug/ml, donor 1
  IFN-α: 52 pg/mL
Example 58, 0.8 ug/ml, donor 2
  IFN-α: 52 pg/mL
Example 58, 0.8 ug/ml, donor 3
  IFN-α: 52 pg/mL
Example 58, 0.8 ug/ml, donor 4
  IFN-α: 52 pg/mL
Example 58, 0.8 ug/ml, mean of four individuals
  IFN-α mean: 52 pg/mL
Example 58, 4 ug/ml, donor 1
  IFN-α: 52 pg/mL
Example 58, 4 ug/ml, donor 2
  IFN-α: 52 pg/mL
Example 58, 4 ug/ml, donor 3
  IFN-α: 52 pg/mL
Example 58, 4 ug/ml, donor 4
  IFN-α: 52 pg/mL
Example 58, 4 ug/ml, mean of four individuals
  IFN-α mean: 52 pg/mL
Example 58, 20 ug/ml, donor 1
  IFN-α: 52 pg/mL
Example 58, 20 ug/ml, donor 2
  IFN-α: 52 pg/mL
Example 58, 20 ug/ml, donor 3
  IFN-α: 52 pg/mL
Example 58, 20 ug/ml, donor 4
  IFN-α: 52 pg/mL
Example 58, 20 ug/ml, mean of four individuals
  IFN-α mean: 52 pg/mL
Example 59, 0.8 ug/ml, donor 48
  IFN-α: 102 pg/mL
Example 59, 0.8 ug/ml, donor 177
  IFN-α: 102 pg/mL
Example 59, 0.8 ug/ml, donor 272
  IFN-α: 102 pg/mL
Example 59, 0.8 ug/ml, donor 273
  IFN-α: 102 pg/mL
Example 59, 0.8 ug/ml, mean of four donors
  IFN-α mean: 102 pg/mL
Example 59, 4 ug/ml, donor 48
  IFN-α: 102 pg/mL
Example 59, 4 ug/ml, donor 177
  IFN-α: 102 pg/mL
Example 59, 4 ug/ml, donor 272
  IFN-α: 102 pg/mL
Example 59, 4 ug/ml, donor 273
  IFN-α: 102 pg/mL
Example 59, 4 ug/ml, mean of four donors
  IFN-α mean: 102 pg/mL
Example 59, 20 ug/ml, donor 48
  IFN-α: 102 pg/mL
Example 59, 20 ug/ml, donor 177
  IFN-α: 102 pg/mL
Example 59, 20 ug/ml, donor 272
  IFN-α: 102 pg/mL
Example 59, 20 ug/ml, donor 273
  IFN-α: 102 pg/mL
Example 59, 20 ug/ml, mean of four donors
  IFN-α mean: 102 pg/mL

## 5′-ACGTTCG-3′-HEG-5′-TCGTCGA-3′-HEG-5′-AGATGAT-3′ [Compound C-57]
Table 13, donor 28156
  IFN-α: 5 pg/mL
  IFN-γ: 419 pg/mL
Table 13, donor 28157
  IFN-α: 52 pg/mL
  IFN-γ: 323 pg/mL
Table 13, donor 28158
  IFN-α: 61 pg/mL
  IFN-γ: 67 pg/mL
Table 13, donor 28159
  IFN-α: 42 pg/mL
  IFN-γ: 262 pg/mL
Table 13, mean of donors
  IFN-α mean: 40 pg/mL
  IFN-γ mean: 268 pg/mL
  immunomodulatory activity (IFN-γ / IFN-α secretion), in words: somewhat more active than C-58

## 5′-TCGTCG-3′-(C3)15-5′-T-3′ [Compound C-13]
Donor 28057, Table 16
  IFN-α: 31 pg/mL
  IFN-γ: 2 pg/mL
Donor 28058, Table 16
  IFN-α: 0 pg/mL
  IFN-γ: 3 pg/mL
Donor 28059, Table 16
  IFN-α: 249 pg/mL
  IFN-γ: 12 pg/mL
Donor 28060, Table 16
  IFN-α: 0 pg/mL
  IFN-γ: 5 pg/mL
  activity when formulated with cPLGA, in words: all had significant activity when formulated on cPLGA
  immunomodulatory activity (IFN-γ / IFN-α secretion), in words: None of the CICs was active when used alone
[1]
  IFN-α (pg/ml) mean: 70 pg/mL
  IFN-γ (pg/ml) mean: 6 pg/mL

## 5′-TCGTTTT-3′-HEG-5′-TCGTTTT-3′-HEG-5′-TCGTTTT-3′ [Compound C-41]
Table 10, donor 28042
  IFN-α: 0 pg/mL
  IFN-γ: 174 pg/mL
Table 10, donor 28043
  IFN-α: 3 pg/mL
  IFN-γ: 1075 pg/mL
Table 10, donor 28044
  IFN-α: 23 pg/mL
  IFN-γ: 841 pg/mL
Table 10, donor 28045
  IFN-α: 0 pg/mL
  IFN-γ: 45 pg/mL
Table 10, mean of donors
  IFN-α mean: 7 pg/mL
  IFN-γ mean: 534 pg/mL
Donor 110, Table 14
  IFN-α: 58 pg/mL
  IFN-γ: 512 pg/mL
Donor 112, Table 14
  IFN-α: 2 pg/mL
  IFN-γ: 100 pg/mL
Donor 119, Table 14
  IFN-α: 182 pg/mL
  IFN-γ: 32 pg/mL
Donor 120, Table 14
  IFN-α: 6 pg/mL
  IFN-γ: 32 pg/mL
[2]
  IFN-α (pg/ml) mean: 62 pg/mL
  IFN-γ (pg/ml) mean: 169 pg/mL

## 5′-GsGs-3′-C3-5′-TCGTGC-3′-C3-5′-ATCGAT-3′-C3-5′-GCACGA-3′-C3-5′-GGsGsGsGsG-3′ (s = phosphorothioate linkages, otherwise linkages are phosphodiester) [Compound C-85]
Table 11, donor 28042
  IFN-α: 0 pg/mL
  IFN-γ: 17 pg/mL
Table 11, donor 28043
  IFN-α: 0 pg/mL
  IFN-γ: 13 pg/mL
Table 11, donor 28044
  IFN-α: 28 pg/mL
  IFN-γ: 315 pg/mL
Table 11, donor 28045
  IFN-α: 24 pg/mL
  IFN-γ: 134 pg/mL
Table 11, mean of donors
  IFN-α mean: 13 pg/mL
  IFN-γ mean: 120 pg/mL

## (5′-TCGTCGA-3′-HEG)2-glycerol-HEG-5′-TCGTCGA-3′ (phosphodiester) [Compound C-93]
Table 9, donor 28089
  IFN-α: 0 pg/mL
  IFN-γ: 0 pg/mL
Table 9, donor 28090
  IFN-α: 30 pg/mL
  IFN-γ: 0 pg/mL
Table 9, donor 28098
  IFN-α: 25 pg/mL
  IFN-γ: 0 pg/mL
Table 9, donor 28099
  IFN-α: 29 pg/mL
  IFN-γ: 3 pg/mL
Table 9, mean of donors
  IFN-α mean: 21 pg/mL
  IFN-γ mean: 1 pg/mL
Table 11, donor 28042
  IFN-α: 7 pg/mL
  IFN-γ: 8 pg/mL
Table 11, donor 28043
  IFN-α: 3 pg/mL
  IFN-γ: 1 pg/mL
Table 11, donor 28044
  IFN-α: 81 pg/mL
  IFN-γ: 41 pg/mL
Table 11, donor 28045
  IFN-α: 61 pg/mL
  IFN-γ: 17 pg/mL
Table 11, mean of donors
  IFN-α mean: 38 pg/mL
  IFN-γ mean: 17 pg/mL
  activity when formulated with cPLGA, in words: significantly more active when formulated with cPLGA; also recorded: active only when formulated
  immunomodulatory activity (IFN-γ / IFN-α secretion), in words: inactive as CICs alone

## 5′-TCGTCG-3′ [Compound P-2, reference compound]
Donor 3, 20 μg/ml, 24 h
  IFN-α (pg/ml) Donor 3: 0 pg/mL
  IFN-γ (pg/ml) Donor 3: 0 pg/mL
Donor 4, 20 μg/ml, 24 h
  IFN-α (pg/ml) Donor 4: 40 pg/mL
  IFN-γ (pg/ml) Donor 4: 4 pg/mL
Donor 9, 20 μg/ml, 24 h
  IFN-α Donor 9: 0
  IFN-γ Donor 9: 2
Donor 10, 20 μg/ml, 24 h
  IFN-α Donor 10: 2
  IFN-γ Donor 10: 3
Donor 11, 20 μg/ml, 24 h
  IFN-α Donor 11: 1
  IFN-γ Donor 11: 1
Donor 12, 20 μg/ml, 24 h
  IFN-α Donor 12: 4
  IFN-γ Donor 12: 2
Table 25, donor 28250
  IFN-a: 16 pg/mL
Table 25, donor 28250, polynucleotides/spacers at amounts equivalent to the CIC, spacers alone 9 uM
  IFN-g: 7 pg/mL
Table 25, donor 28251
  IFN-a: 16 pg/mL
  IFN-g: 25 pg/mL
Table 25, donor 28252
  IFN-a: 25 pg/mL
  IFN-g: 53 pg/mL
Table 25, donor 28253
  IFN-a: 16 pg/mL
  IFN-g: 1 pg/mL
[3]
  IFN-a mean: 18 pg/mL
  IFN-g mean: 22 pg/mL
Donor 28065 (high background), 20 ug/ml, 24 h, + PLGA = premixed with 100 μg/ml cPLGA, 1000 = outside assay limits
  IFN-γ (pg/ml) 28065: 79 pg/mL
Donor 28065, 20 ug/ml, 24 h, + PLGA = premixed with 100 μg/ml cPLGA
  IFN-α (pg/ml) 28065: 0 pg/mL
[4]
  IFN-α (pg/ml) 28066: 3 pg/mL
  IFN-γ (pg/ml) 28066: 1 pg/mL
[5]
  IFN-α (pg/ml) 28067: 0 pg/mL
  IFN-γ (pg/ml) 28067: 1 pg/mL
[6]
  IFN-α (pg/ml) 28068: 0 pg/mL
  IFN-γ (pg/ml) 28068: 0 pg/mL
[7]
  IFN-α (pg/ml) mean: 20 pg/mL
  IFN-γ (pg/ml) mean: 2 pg/mL
[8]
  IFN-α mean: 2
  IFN-γ mean: 2
[9]
  IFN-α (pg/ml) mean: 1 pg/mL
  IFN-γ (pg/ml) mean: 20 pg/mL
  immunomodulatory activity (IFN-γ / IFN-α secretion), in words: did not have immunomodulatory activity; also recorded: had no activity

## 5′-TCGAACG-3′-HEG-5′-TCGAACG-3′-HEG-5′-TCGAACG-3′ [Compound C-50]
Table 10, donor 28042
  IFN-α: 36 pg/mL
  IFN-γ: 1324 pg/mL
Table 10, donor 28043
  IFN-α: 137 pg/mL
  IFN-γ: 1292 pg/mL
Table 10, donor 28044
  IFN-α: 193 pg/mL
  IFN-γ: 509 pg/mL
Table 10, donor 28045
  IFN-α: 35 pg/mL
  IFN-γ: 192 pg/mL
Table 10, mean of donors
  IFN-α mean: 100 pg/mL
  IFN-γ mean: 829 pg/mL
Donor 110, Table 14
  IFN-α: 716 pg/mL
  IFN-γ: 1096 pg/mL
Donor 112, Table 14
  IFN-α: 84 pg/mL
  IFN-γ: 264 pg/mL
Donor 119, Table 14
  IFN-α: 838 pg/mL
  IFN-γ: 52 pg/mL
Donor 120, Table 14
  IFN-α: 636 pg/mL
  IFN-γ: 48 pg/mL
[2]
  IFN-α (pg/ml) mean: 569 pg/mL
  IFN-γ (pg/ml) mean: 365 pg/mL
Used alone
  IFN-α induction, in words: generated more IFN-α than CICs containing a 5′-TCGT-3′
  immunomodulatory activity (IFN-γ / IFN-α secretion), in words: more active than other CG-containing CICs

## 5′-TGCTGCA-3′-C3-5′-AGCTTGC-3′-C3-5′-AGATGAT-3′ (No CG) [Compound C-86]
Donor 28185, Table 15
  IFN-a: 7 pg/mL
  IFN-g: 1 pg/mL
Donor 28186, Table 15
  IFN-a: 4 pg/mL
  IFN-g: 4 pg/mL
Donor 28187, Table 15
  IFN-a: 4 pg/mL
  IFN-g: 30 pg/mL
Donor 28188, Table 15
  IFN-a: 31 pg/mL
  IFN-g: 5 pg/mL
[10]
  IFN-a (pg/ml) mean: 11 pg/mL
  IFN-g (pg/ml) mean: 10 pg/mL
Mean ×2, Table 15
  IFN-a (pg/ml) ×2: 22 pg/mL
Mean ×4, Table 15
  IFN-g (pg/ml) ×4: 40 pg/mL
